Measured values reported in US20220169654A1, “New Organic Compounds” (Servier Pharmaceuticals LLC, priority 2020, published 2022).

What was measured:
[1] = system: HCT116 MTAP−/−; assay: Inhibition of cellular proliferation, 4 days, Cell Titer Glo, HCT116 MTAP−/−; format: cell-based; conditions: Homo sapiens, HCT-116, 96 h, IC50 bin with Max Inh., read-out: 4 Day Relative Growth Inhibition (MTAP −/−)
In short: (§1)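 IC50 derived from blank-corrected ATP luminescence (Cell Titer Glo) expressed relative to within-plate 0.2% DMSO wells. Compound, as a 10-point 3-fold series, was added 24 h after seeding the MTAP+/+ or MTAP−/− HCT116 cells and incubated 4 days at 37° C./5% CO2.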

[2] = system: HCT116 MTAP+/+; assay: Inhibition of cellular proliferation, 4 days, Cell Titer Glo, HCT116 MTAP+/+; format: cell-based; conditions: Homo sapiens, HCT-116, 96 h, IC50 bin with Max Inh., read-out: 4 Day Relative Growth Inhibition (MTAP +/+)
In short: as §1

[3] = target: T1, MAT2A homodimer (Homo sapiens, UniProt P31153); assay: MAT2A inhibition (biochemical, liberated phosphate, PiColorLock Gold); conditions: recombinant MAT2A homodimer; IC50 bin with Max Inh.; read-out: Enzyme Inhibition Bin
T1 construct: inferred from Ni sepharose purification with imidazole elution; made in house; host or cells: Sf9 insect cells, baculovirus (Bac to Bac, pFASTBAC1)
T1 sequence (P31153 whole entry): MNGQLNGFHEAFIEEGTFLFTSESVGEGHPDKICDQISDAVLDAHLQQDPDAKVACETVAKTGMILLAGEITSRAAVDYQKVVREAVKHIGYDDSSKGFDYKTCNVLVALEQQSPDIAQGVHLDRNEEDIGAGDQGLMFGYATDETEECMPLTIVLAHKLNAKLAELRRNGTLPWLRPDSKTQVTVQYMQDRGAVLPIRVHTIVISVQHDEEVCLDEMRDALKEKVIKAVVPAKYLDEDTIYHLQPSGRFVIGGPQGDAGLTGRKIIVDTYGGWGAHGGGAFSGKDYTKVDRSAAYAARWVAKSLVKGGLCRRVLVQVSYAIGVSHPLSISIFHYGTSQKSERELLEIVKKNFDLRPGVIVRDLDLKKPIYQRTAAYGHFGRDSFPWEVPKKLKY
In short: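 Enzyme at 4 μg/mL and compound equilibrated 60 min at 25 °C, then 60 min reaction after adding substrate mix (500 μM ATP, 400 μM methionine). Released phosphate quantified by colorimetric kit against a phosphate standard curve to give IC50. Secondary format used 1 μg/mL enzyme with 5 h incubation.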

[4] = system: SAM in HCT116 human colon carcinoma cell line with MTAP gene deleted (MTAP −/−); assay: Cellular assay of target engagement (SAM), LC-MS/MS, 72 hrs; format: cell-based; conditions: HCT-116, IC50 bin with Max Inh., read-out: Cell 72 h SAM Inhibition (MTAP −/−)
In short: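 SAM levels were quantified by LC-MS/MS (m/z 399.2→250.1, d3-SAM internal standard) from cold methanol/acetic acid extracts, yielding IC50. Compound was applied as a 10-point 3-fold series for 72 hrs to MTAP −/− HCT116 cells seeded 24 hours before.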

Structure (SMILES)	IC50 [1] [nM]	IC50 [2] [nM]	IC50 [3] [nM]	IC50 [4] [nM]
Cc1nc2nn(-c3ccc4nn(C)cc4c3)c(=O)c(-c3ccc(OC(F)F)cc3)c2n1CC1CC1 [Example 191, 5-(cyclopropylmethyl)-4-(4-(difluoromethoxy)phenyl)-6-methyl-2-(2-methyl-2H-indazol-5-yl)-2,5-dihydro-3H-imidazo[4,5-c]pyridazin-3-one]	< 100	> 1000	< 100	< 100
Cn1cc2cc(-n3nc4c(c(-c5ccc(OC(F)F)cc5)c3=O)n(CC3CC3)c(=O)n4C)ccc2n1 [Example 196, 5-(cyclopropylmethyl)-4-[4-(difluoromethoxy)phenyl]-7-methyl-2-(2-methyl-2H-indazol-5-yl)-2H,3H,5H,6H,7H-imidazolidino[4,5-c]pyridazine-3,6-dione]	< 100	100 to 1000	< 100	< 100
Cn1cc2cc(-n3nc4[nH]c(=O)n(CC5CC5)c4c(-c4ccc(OC(F)F)cc4)c3=O)ccc2n1 [Example 197, 5-(cyclopropylmethyl)-4-(4-(difluoromethoxy)phenyl)-2-(2-methyl-2H-indazol-5-yl)-2,7-dihydro-3H-imidazo[4,5-c]pyridazine-3,6(5H)-dione]	100 to 1000	100 to 1000	< 100	< 100
Cn1cc2cc(-n3nc4c(c(-c5ccc(C6CC6)nc5)c3=O)n(CC3CC3)c(=O)n4C)ccc2n1 [Example 198, 5-(cyclopropylmethyl)-4-(6-cyclopropylpyridin-3-yl)-7-methyl-2-(2-methyl-2H-indazol-5-yl)-2,7-dihydro-3H-imidazo[4,5-c]pyridazine-3,6(5H)-dione]	< 100	> 1000	< 100	< 100
Cn1cc2cc(-n3nc4c(c(-c5ccc(Cl)cc5)c3=O)n(CC3CC3)c(=O)n4C)ccc2n1 [Example 199, 4-(4-chlorophenyl)-5-(cyclopropylmethyl)-7-methyl-2-(2-methyl-2H-indazol-5-yl)-2,7-dihydro-3H-imidazo[4,5-c]pyridazine-3,6(5H)-dione]	< 100	> 1000	< 100	< 100
[2H]C([2H])([2H])Oc1ccc(-c2c(=O)n(-c3ccc4nn(C)cc4c3)nc3c2n(CC2CC2)c(=O)n3C)cc1 [Example 201, 5-(cyclopropylmethyl)-4-(4-(methoxy-d3)phenyl)-7-methyl-2-(2-methyl-2H-indazol-5-yl)-2,7-dihydro-3H-imidazo[4,5-c]pyridazine-3,6(5H)-dione]	< 100	100 to 1000	< 100	< 100
Cc1ccc(-c2c(=O)n(-c3ccc4nn(C)cc4c3)nc3c2n(CC2CC2)c(=O)n3C)cn1 [Example 202, 5-(cyclopropylmethyl)-7-methyl-2-(2-methyl-2H-indazol-5-yl)-4-(6-methylpyridin-3-yl)-2,7-dihydro-3H-imidazo[4,5-c]pyridazine-3,6(5H)-dione]	100 to 1000	100 to 1000	< 100	100 to 1000
Cn1cc2cc(-n3nc4[nH]c(=O)n(CC5CC5)c4c(-c4ccc(Cl)cc4)c3=O)ccc2n1 [Example 205, 4-(4-chlorophenyl)-5-(cyclopropylmethyl)-2-(2-methyl-2H-indazol-5-yl)-2,7-dihydro-3H-imidazo[4,5-c]pyridazine-3,6(5H)-dione]	100 to 1000	> 1000	< 100	< 100
[2H]C([2H])([2H])Oc1ccc(-c2c(=O)n(-c3ccc4nn(C)cc4c3)nc3[nH]c(=O)n(CC4CC4)c23)cc1 [Example 206, 5-(cyclopropylmethyl)-4-(4-(methoxy-d3)phenyl)-2-(2-methyl-2H-indazol-5-yl)-2,7-dihydro-3H-imidazo[4,5-c]pyridazine-3,6(5H)-dione]	100 to 1000	> 1000	< 100	< 100
Cc1ccc(-c2c(=O)n(-c3ccc4nn(C)cc4c3)nc3[nH]c(=O)n(CC4CC4)c23)cn1 [Example 207, 5-(cyclopropylmethyl)-2-(2-methyl-2H-indazol-5-yl)-4-(6-methylpyridin-3-yl)-2,7-dihydro-3H-imidazo[4,5-c]pyridazine-3,6(5H)-dione]	100 to 1000	> 1000	< 100	< 100
Cn1cc2cc(-n3nc4nnn(CC5CC5)c4c(-c4ccc(OC(F)F)cc4)c3=O)ccc2n1 [Example 208, 1-(cyclopropylmethyl)-7-(4-(difluoromethoxy)phenyl)-5-(2-methyl-2H-indazol-5-yl)-1,5-dihydro-6H-[1,2,3]triazolo[4,5-c]pyridazin-6-one]	100 to 1000	100 to 1000	< 100	< 100

Now from value to compound:

IC50 [1] [nM]	IC50 [2] [nM]	IC50 [3] [nM]	IC50 [4] [nM]	Structure (SMILES)
100 to 1000	> 1000	< 100	100 to 1000	Cn1cc2cc(-n3nc4ncn(CC5CC5)c4c(-c4ccc(OC(F)F)nc4)c3=O)ccc2n1 [Example 189, 5-(cyclopropylmethyl)-4-(6-(difluoromethoxy)pyridin-3-yl)-2-(2-methyl-2H-indazol-5-yl)-2,5-dihydro-3H-imidazo[4,5-c]pyridazin-3-one]
< 100	> 1000	< 100	< 100	Cn1cc2cc(-n3nc4ncn(CC5CC5)c4c(-c4ccc(C5CC5)nc4)c3=O)ccc2n1 [Example 190, 5-(cyclopropylmethyl)-4-(6-cyclopropylpyridin-3-yl)-2-(2-methyl-2H-indazol-5-yl)-2,5-dihydro-3H-imidazo[4,5-c]pyridazin-3-one]
< 100	100 to 1000	< 100	< 100	Cn1cc2cc(-n3nc4ncn(CC5CC5)c4c(-c4ccc(C5CC5)cc4)c3=O)ccc2n1 [Example 192, 5-(cyclopropylmethyl)-4-(4-cyclopropylphenyl)-2-(2-methyl-2H-indazol-5-yl)-2,5-dihydro-3H-imidazo[4,5-c]pyridazin-3-one]
< 100	> 1000	< 100	< 100	COc1ccc(-c2c(=O)n(-c3ccc4nn(C)cc4c3)nc3ncn(CC4CC4)c23)cc1 [Example 193, 5-(cyclopropylmethyl)-4-(4-methoxyphenyl)-2-(2-methyl-2H-indazol-5-yl)-2,5-dihydro-3H-imidazo[4,5-c]pyridazin-3-one]
< 100	100 to 1000	< 100	< 100	[2H]C([2H])([2H])Oc1ccc(-c2c(=O)n(-c3ccc4nn(C)cc4c3)nc3ncn(CC4CC4)c23)cc1 [Example 194, 5-(cyclopropylmethyl)-4-(4-(methoxy-d3)phenyl)-2-(2-methyl-2H-indazol-5-yl)-2,5-dihydro-3H-imidazo[4,5-c]pyridazin-3-one]
< 100	> 1000	< 100	< 100	COc1ccc(-c2c(=O)n(-c3ccc4nc(C)n(C)c4c3)nc3ncn(CC4CC4)c23)cc1 [Example 195, 5-(cyclopropylmethyl)-2-(1,2-dimethyl-1H-benzo[d]imidazol-6-yl)-4-(4-methoxyphenyl)-2,5-dihydro-3H-imidazo[4,5-c]pyridazin-3-one]
< 100	100 to 1000	< 100	< 100	Cn1cc2cc(-n3nc4c(c(-c5ccc(C6CC6)cc5)c3=O)n(CC3CC3)c(=O)n4C)ccc2n1 [Example 200, 5-(cyclopropylmethyl)-4-(4-cyclopropylphenyl)-7-methyl-2-(2-methyl-2H-indazol-5-yl)-2,7-dihydro-3H-imidazo[4,5-c]pyridazine-3,6(5H)-dione]
< 100	100 to 1000	< 100	< 100	Cn1cc2cc(-n3nc4[nH]c(=O)n(CC5CC5)c4c(-c4ccc(C5CC5)nc4)c3=O)ccc2n1 [Example 203, 5-(cyclopropylmethyl)-4-(6-cyclopropylpyridin-3-yl)-2-(2-methyl-2H-indazol-5-yl)-2,7-dihydro-3H-imidazo[4,5-c]pyridazine-3,6(5H)-dione]
< 100	> 1000	< 100	< 100	Cn1cc2cc(-n3nc4[nH]c(=O)n(CC5CC5)c4c(-c4ccc(C5CC5)cc4)c3=O)ccc2n1 [Example 204, 5-(cyclopropylmethyl)-4-(4-cyclopropylphenyl)-2-(2-methyl-2H-indazol-5-yl)-2,7-dihydro-3H-imidazo[4,5-c]pyridazine-3,6(5H)-dione]
100 to 1000	> 1000	< 100	100 to 1000	Cn1cc2cc(-n3nc4nnn(CC5CC5)c4c(-c4ccc(C5CC5)cc4)c3=O)ccc2n1 [Example 209, 1-(cyclopropylmethyl)-7-(4-cyclopropylphenyl)-5-(2-methyl-2H-indazol-5-yl)-1,5-dihydro-6H-[1,2,3]triazolo[4,5-c]pyridazin-6-one]
